Data on 19 compounds can be found in US10669242B2 (priority 2016, dated 2020).

For orientation: IC50 means the point on the concentration scale where inhibition reaches its midpoint.

T1 sequence (P18177 1-543): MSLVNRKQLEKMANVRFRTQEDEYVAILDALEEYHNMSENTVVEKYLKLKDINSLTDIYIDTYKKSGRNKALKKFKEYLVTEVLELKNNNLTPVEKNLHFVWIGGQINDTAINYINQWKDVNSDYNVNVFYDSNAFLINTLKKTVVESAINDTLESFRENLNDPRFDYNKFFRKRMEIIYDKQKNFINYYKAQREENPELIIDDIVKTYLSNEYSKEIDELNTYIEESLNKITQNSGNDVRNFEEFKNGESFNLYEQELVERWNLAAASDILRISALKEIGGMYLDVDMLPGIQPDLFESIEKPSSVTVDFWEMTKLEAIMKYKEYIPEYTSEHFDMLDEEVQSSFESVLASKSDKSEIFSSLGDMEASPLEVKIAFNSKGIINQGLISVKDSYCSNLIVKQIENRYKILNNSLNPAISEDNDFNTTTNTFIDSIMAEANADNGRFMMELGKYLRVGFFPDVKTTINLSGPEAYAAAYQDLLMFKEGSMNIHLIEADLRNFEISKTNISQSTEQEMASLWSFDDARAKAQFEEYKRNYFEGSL

This assay addresses T1, recombinant glucosyltransferase domain of C. difficile Toxin B/TcdB (Clostridioides difficile, UniProt P18177).
T1 construct: 6-His (C); purchased R&D Systems 6246-GT
The experiment in a line: biochemical.
Consider `Cc1cc(NC(=O)c2ccc(CN3C(=O)c4ccc(Cl)cc4NC(=O)[C@H]3Cc3cccnc3)cc2)no1` [Example 4e, (R)-4-((8-chloro-2,5-dioxo-3-(pyridin-3-ylmethyl)-2,3-dihydro-1H-benzo[e][1,4]diazepin-4(5H)-yl)methyl)-N-(5-methylisoxazol-3-yl)benzamide], for which the half-inhibitory concentration (IC50) was under 100 nM.
Next, `O=C(O)c1ccc(CN2C(=O)c3ccc(Cl)cc3NC(=O)[C@H]2Cc2ccccn2)cc1-c1ccc2c(c1)OCO2` [Example 8c, (R)-2-(benzo[d][1,3]dioxol-5-yl)-4-((8-chloro-2,5-dioxo-3-(pyridin-2-ylmethyl)-2,3-dihydro-1H-benzo[e][1,4]diazepin-4(5H)-yl)methyl)benzoic acid]: 100 to 999 nM; `O=C(Nc1ccccn1)c1ccc(CN2C(=O)c3ccc([N+](=O)[O-])cc3NC(=O)[C@H]2Cc2ccc(Cl)c(Cl)c2)cc1` [Example 4ae, (R)-4-((3-(3,4-dichlorobenzyl)-8-nitro-2,5-dioxo-2,3-dihydro-1H-benzo[e][1,4]diazepin-4(5H)-yl)methyl)-N-(pyridin-2-yl)benzamide]: 100 to 999 nM.
In the case of `Cc1cnc(NC(=O)[C@H]2CC[C@H](CN3C(=O)c4ccc(Cl)cc4NC(=O)[C@H]3Cc3ccccn3)CC2)cn1` [Example 4cf, (1R,4r)-4-(((R)-8-chloro-2,5-dioxo-3-(pyridin-2-ylmethyl)-2,3-dihydro-1H-benzo[e][1,4]diazepin-4(5H)-yl)methyl)-N-(5-methylpyrazin-2-yl)cyclohexanecarboxamide] it was under 100 nM; in that of `O=C(Nc1cc(CN2C(=O)c3ccc(Cl)cc3NC(=O)[C@H]2Cc2ccccn2)ccc1C(=O)O)c1ccccn1` [Example 21a, (R)-4-((8-Chloro-2,5-dioxo-3-(pyridin-2-ylmethyl)-2,3-dihydro-1H-benzo[e][1,4]diazepin-4(5H)-yl)methyl)-2-(picolinamido)benzoic Acid], 1000 to 10000 nM.
In the case of `O=C1Nc2cc(Cl)ccc2C(=O)N(Cc2ccc(C(=O)N3CCCc4cccnc43)cc2)[C@@H]1Cc1ccccn1` [Example 4ag, (R)-8-chloro-3-(pyridin-2-ylmethyl)-4-(4-(1,2,3,4-tetrahydro-1,8-naphthyridine-1-carbonyl)benzyl)-3,4-dihydro-1H-benzo[e][1,4]diazepine-2,5-dione] it was 1000 to 10000 nM; in that of `Cc1ccc(NC(=O)c2ccc(S(=O)(=O)N3Cc4ccc(Cl)cc4NC(=O)[C@H]3Cc3ccccn3)cc2)nc1` [Example 19a, (R)-4-((8-Chloro-2-oxo-3-(pyridin-2-ylmethyl)-2,3-dihydro-1H-benzo[e][1,4]diazepin-4(5H)-yl)sulfonyl)-N-(5-methylpyridin-2-yl)benzamide], 100 to 999 nM.
As for `CC1(C)CN(C(=O)c2ccc(CN3C(=O)c4ccc(Cl)cc4NC(=O)[C@H]3Cc3ccccn3)cc2Cl)c2ncc(C(F)(F)F)cc21` [Example 5aw, (R)-8-chloro-4-(3-chloro-4-(3,3-dimethyl-5-(trifluoromethyl)-2,3-dihydro-1H-pyrrolo[2,3-b]pyridine-1-carbonyl)benzyl)-3-(pyridin-2-ylmethyl)-3,4-dihydro-1H-benzo[e][1,4]diazepine-2,5-dione], the IC50 was under 100 nM.
Next, `COc1cnc(NC(=O)c2ccc(CN3C(=O)c4ccc(Cl)cc4NC(=O)[C@H]3Cc3cccnc3)cc2)nc1` [Example 5m, (R)-4-((8-chloro-2,5-dioxo-3-(pyridin-3-ylmethyl)-2,3-dihydro-1H-benzo[e][1,4]diazepin-4(5H)-yl)methyl)-N-(5-methoxypyrimidin-2-yl)benzamide]: under 100 nM; `Cc1cnc(NC(=O)c2ccc(S(=O)(=O)N3Cc4ccc(Cl)cc4NC(=O)[C@@H]3Cc3ccccn3)cc2)nc1` [Example 19e, (S)-4-((8-chloro-2-oxo-3-(pyridin-2-ylmethyl)-2,3-dihydro-1H-benzo[e][1,4]diazepin-4(5H)-yl)sulfonyl)-N-(5-methylpyrimidin-2-yl)benzamide]: 100 to 999 nM; `COc1ccc2c(c1)NC(=O)[C@@H](Cc1cccnc1)N(Cc1ccc(C(=O)Nc3ccccn3)cc1)C2=O` [Example 4p, (R)-4-((8-methoxy-2,5-dioxo-3-(pyridin-3-ylmethyl)-2,3-dihydro-1H-benzo[e][1,4]diazepin-4(5H)-yl)methyl)-N-(pyridin-2-yl)benzamide]: under 100 nM.
In the case of `Nc1cccnc1C(=O)Nc1ccc(CN2C(=O)c3ccc(Cl)cc3NC(=O)[C@H]2Cc2ccccn2)cc1` [Example 45a, (R)-3-Amino-N-(4-((8-chloro-2,5-dioxo-3-(pyridin-2-ylmethyl)-2,3-dihydro-1H-benzo[e][1,4]diazepin-4(5H)-yl)methyl)phenyl)picolinamide] it was under 100 nM; in that of `COc1cnc(NC(=O)c2ccc(CN3C(=O)c4ccc(Cl)cc4NC(=O)[C@H]3Cc3ccccn3)cc2)cn1` [Example 5v, (R)-4-((8-chloro-2,5-dioxo-3-(pyridin-2-ylmethyl)-2,3-dihydro-1H-benzo[e][1,4]diazepin-4(5H)-yl)methyl)-N-(5-methoxypyrazin-2-yl)benzamide], under 100 nM.
On to `O=C1Nc2cc(Cl)ccc2C(=O)N(Cc2ccc(S(=O)(=O)Nc3ccccn3)cc2)[C@@H]1Cc1cccnc1` [Example 36a, (R)-4-((8-Chloro-2,5-dioxo-3-(pyridin-3-ylmethyl)-2,3-dihydro-1H-benzo[e][1,4]diazepin-4(5H)-yl)methyl)-N-(pyridin-2-yl)benzenesulfonamide], for which the IC50 lay within 1000 to 10000 nM.
In the case of `O=C(O)c1ccc(CN2C(=O)c3ccc(Cl)cc3NC(=O)[C@H]2Cc2ccccn2)cc1` [Example 1a, (R)-4-((8-Chloro-2,5-dioxo-3-(pyridin-2-ylmethyl)-2,3-dihydro-1H-benzo[e][1,4]diazepin-4(5H)-yl)methyl)benzoic Acid] it was 100 to 999 nM.
In the case of `COc1ccc(NC(=O)c2ccc(CN3C(=O)c4ccc(Cl)cc4NC(=O)[C@H]3Cc3cccnc3)cc2)nc1` [Example 5g, (R)-4-((8-chloro-2,5-dioxo-3-(pyridin-3-ylmethyl)-2,3-dihydro-1H-benzo[e][1,4]diazepin-4(5H)-yl)methyl)-N-(5-methoxypyridin-2-yl)benzamide] it was under 100 nM.
Next, `O=C(O)c1ccc(CN2C(=O)c3ccc(Cl)cc3NC(=O)[C@H]2Cc2ccccn2)cc1-c1ccc(F)c(Cl)c1` [Example 8l, (R)-3′-chloro-5-((8-chloro-2,5-dioxo-3-(pyridin-2-ylmethyl)-2,3-dihydro-1H-benzo[e][1,4]diazepin-4(5H)-yl)methyl)-4′-fluoro-[1,1′-biphenyl]-2-carboxylic acid]: 100 to 999 nM; `O=C(Nc1ccccn1)c1ccc(C(=O)N2Cc3ccc(Cl)cc3NC(=O)[C@H]2Cc2ccccn2)cc1` [Example 19i, (R)-4-(8-chloro-2-oxo-3-(pyridin-2-ylmethyl)-2,3,4,5-tetrahydro-1H-benzo[e][1,4]diazepine-4-carbonyl)-N-(pyridin-2-yl)benzamide]: 1000 to 10000 nM; `CS(=O)(=O)NC(=O)c1ccc(CN2C(=O)c3ccc(Cl)cc3NC(=O)[C@H]2Cc2cccnc2)cc1` [Example 15b, (R)-4-((8-chloro-2,5-dioxo-3-(pyridin-3-ylmethyl)-2,3-dihydro-1H-benzo[e][1,4]diazepin-4(5H)-yl)methyl)-N-(methylsulfonyl)benzamide]: 1000 to 10000 nM.
